# Target: T1, Purified P450arom (aromatase) reconstituted with P450-reductase (CPR) (Homo sapiens, UniProt P11511)
# T1 sequence (P11511 1-503): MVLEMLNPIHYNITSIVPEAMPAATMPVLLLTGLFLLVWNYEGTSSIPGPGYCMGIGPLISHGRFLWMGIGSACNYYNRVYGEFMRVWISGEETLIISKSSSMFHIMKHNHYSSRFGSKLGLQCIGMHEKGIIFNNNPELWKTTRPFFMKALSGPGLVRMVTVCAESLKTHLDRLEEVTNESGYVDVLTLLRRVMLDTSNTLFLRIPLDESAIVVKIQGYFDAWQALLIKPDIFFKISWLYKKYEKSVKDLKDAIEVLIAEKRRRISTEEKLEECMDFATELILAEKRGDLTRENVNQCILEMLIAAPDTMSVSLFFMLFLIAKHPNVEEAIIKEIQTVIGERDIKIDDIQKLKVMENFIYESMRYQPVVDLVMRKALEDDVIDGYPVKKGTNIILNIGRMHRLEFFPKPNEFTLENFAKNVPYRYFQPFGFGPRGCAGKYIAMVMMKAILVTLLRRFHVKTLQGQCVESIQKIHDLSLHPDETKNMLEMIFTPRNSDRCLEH
# Test: Measurement of aromatase activity by 3H-water method
# Format: biochemical
# Conditions: substrate 0.24 μM [1β-3H, 4-14C] androstenedione, 37° C., 20 minutes
# [1] = compound concentration 0.1 (μmol)
# [2] = compound concentration 1 (μmol)
# [3] = compound concentration 10 (μmol)
SMILES,% Inhibition [1] [%],% Inhibition [2] [%],% Inhibition [3] [%]
"C[C@]12CCC(O)=C(OCc3ccccc3)C1=CC[C@@H]1[C@@H]2CC[C@]2(C)C(=O)CC[C@@H]12 [HDDG-050, (8R,9S,10R,13S,14S)-4-(benzyloxy)-3-hydroxy-10,13-dimethyl-7,8,9,10,11,12,13,14,15,16-decahydro-1H-cyclopenta[α]phenanthren-17(2H)-one]",75,96,100
CCCCO[C@@H]1C[C@@H]2[C@H](CC[C@]3(C)C(=O)CC[C@@H]23)[C@@]2(C)CCC(=O)C=C12 [HDDG-052],47,95,87
"C[C@]12C=CC(=O)C=C1[C@H](OCC#Cc1ccc(Cl)c(Cl)c1)C[C@@H]1[C@@H]2CC[C@]2(C)C(=O)CC[C@@H]12 [HDDG-053, (6R,8R,9S,10R,13S,14S)-6-((3-(3,4-dichlorophenyl)prop-2-yn-1-yl)oxy)-10,13-dimethyl-7,8,9,10,11,12,13,14,15,16-decahydro-3H-cyclopenta[α]phenanthrene-3,17(6H)-dione]",95,91,–
"C[C@]12C=CC(=O)C=C1[C@H](OCC#Cc1cccc3ccccc13)C[C@@H]1[C@@H]2CC[C@]2(C)C(=O)CC[C@@H]12 [HDDG-054, (6R,8R,9S,10R,13S,14S)-10,13-dimethyl-6-((3-(naphthalen-1-yl)prop-2-yn-1-yl)oxy)-7,8,9,10,11,12,13,14,15,16-decahydro-3H-cyclopenta[α]phenanthrene-3,17(6H)-dione]",94,92,–
"C[C@]12C=CC(=O)C=C1[C@H](OC/C=C/c1ccccc1)C[C@@H]1[C@@H]2CC[C@]2(C)C(=O)CC[C@@H]12 [HDDG-058, (6R,8R,9S,10R,13S,14S)-6-(cinnamyloxy)-10,13-dimethyl-7,8,9,10,11,12,13,14,15,16-decahydro-3H-cyclopenta[α]phenanthrene-3,17(6H)-dione]",95,94,–
"CC/C=C/CO[C@@H]1C[C@@H]2[C@H](CC[C@]3(C)C(=O)CC[C@@H]23)[C@@]2(C)C=CC(=O)C=C12 [HDDG-061, (6R,8R,9S,10R,13S,14S)-10,13-dimethyl-6-((E)-pent-2-en-1-yloxy)-7,8,9,10,11,12,13,14,15,16-decahydro-3H-cyclopenta[α]phenanthrene-3,17(6H)-dione]",96,93,–
"CC/C=C\CO[C@@H]1C[C@@H]2[C@H](CC[C@]3(C)C(=O)CC[C@@H]23)[C@@]2(C)C=CC(=O)C=C12 [HDDG-062, (6R,8R,9S,10R,13S,14S)-10,13-dimethyl-6-((Z)-pent-2-en-1-yloxy)-7,8,9,10,11,12,13,14,15,16-decahydro-3H-cyclopenta[α]phenanthrene-3,17(6H)-dione]",97,96,–
"CCCCCO[C@@H]1C[C@@H]2[C@H](CC[C@]3(C)C(=O)CC[C@@H]23)[C@@]2(C)C=CC(=O)C=C12 [HDDG-063, (6R,8R,9S,10R,13S,14S)-10,13-dimethyl-6-(pentyloxy)-7,8,9,10,11,12,13,14,15,16-decahydro-3H-cyclopenta[α]phenanthrene-3,17(6H)-dione]",96,97,–
COc1ccc(COC2=C(O)CC[C@@]3(C)C2=CC[C@@H]2[C@@H]3CC[C@]3(C)C(=O)CC[C@@H]23)cc1 [HDDG-064],96,96,–
C[C@]12C=CC(=O)C=C1[C@H](OCC#CCO)C[C@@H]1[C@@H]2CC[C@]2(C)C(=O)CC[C@@H]12 [HDDG-065],96,84,–
"N#Cc1ccc(C(c2ccc(C#N)cc2)n2cncn2)cc1 [Letrazole, reference compound]",76,98,–

# Reference: patent publication US8969327B2, “Substituted androst-4-ene diones” (priority 2010, dated 2015)
